# Values of other authors, collected in patent US9968546B2, “Topical composition for skin treatment to reduce lines and wrinkles of the face and body using a dual DNA repair mechanism to address damage caused by aging and ultra-violet induced damage to the skin with combination of skin turgor enhancement compounds” (priority 2015, dated 2018).
# Experiments:
# melanin synthesis = settings: concentration of 0.1%
# [1] = clinically, versus regular Vitamin E
molecule,measurement,setting,value
CCCCCCCCC(CCCCCC)C(=O)OC[C@H](OC(=O)C(CCCCCC)CCCCCCCC)[C@H]1OC(=O)C(OC(=O)C(CCCCCC)CCCCCCCC)=C1OC(=O)C(CCCCCC)CCCCCCCC (stereo partly drawn) [tetrahexyldecyl ascorbate],reduction of melanin synthesis,melanin synthesis,80%
same,8-OHdG induced by UV-A radiation,8-OHdG,decreases
same,p53 expression induced by UV-B radiation,p53 expression,decreases
CC1(C)C=Cc2c(ccc3c2OC[C@@H](c2ccc(O)cc2O)C3)O1 [Glabridin],tyrosinase-inhibition activity relative to Kojic acid,tyrosinase; versus Kojic acid,25 times
same,tyrosinase-inhibition activity relative to ascorbic acid,tyrosinase; versus ascorbic acid,75 times
Tocotrienol,strength and effectiveness at repairing skin damage relative to regular Vitamin E,[1],40-50 times
